# “Also recorded” adds a separate entry of the source.
# Experiments:
# Assay type in all cases: cell-based, human
# CD133+ cells = assay: Cell cycle status of CD133+ cells (G0-G1)
# Method: Cells to be investigated were harvested and washed in PBS at 400 g for 10 min. Pelleted cells were then fixed in ice-cold 70% ethanol. Fixed cells were subsequently washed twice in PBS (600 g; 10 min) and incubated in 100 μl of ribonuclease (100 μg/ml; Sigma Aldrich) for 5 min (room temperature) prior to addition of 400 μl of propidium iodide (50 μg/ml; Sigma Aldrich) and 30 minutes incubation (37° C.). Cells were then analysed for cell cycle status on FACScan flow cytometer (Becton Dickinson, USA) and using WinMDI and Cylchred softwares.
# (§1) CD133+ cells (another name for AC133+ cells) were seeded in duplicate at 4×10^4 cells/ml in IMDM (Life Technologies), 10% FCS (Sigma Aldrich) and gentamycin (50 μg/ml Life Technologies) and Thrombopoietin (TPO) 10 ng/ml, Flt3-Ligand (FL) 50 ng/ml & c-KitL (K) 20 ng/ml), all obtained from R and D systems Ltd., UK. (Forraz et al., 2002). The HXP peptide (N-term: WYPWMKKHHRQIKIWFQNRRMKWKK: C-term; Eurogentec, Belgium) and control CXP peptide (N-term: WCCLADRHGRQIKIWFQNRRMKWKK: C-term; Eurogentec, Belgium) were added to culture medium at a concentration of 20 μg/ml. To withdraw peptides from culture, cells were washed twice in IMDM or RPMI and reseeded at prewash cell densities. Primary cells were cultured for 3 weeks at 37° C., 5% CO2 in humidified atmosphere and enumerated by a […] exclusion method with a heamocytometer.
# PBX/HOX dimers = assay: Western blotting of PBX and PBX/HOX dimers in CD133+ cells (Example 3); conditions: 20 μg/ml, EDC cross-linking
# Method: as §1
# Protein was extracted from HXP-treated or CXP-treated CD133+ cells (20 μg/ml). C-20 antibody that recognises all three human PBX gene proteins (sc-888, Santa Cruz Biotechnology Inc., USA; Monica et al., 1991). Protein cross linking was performed with 2 mM 1-ethyl-3-[3-(dimethylamino)propyl]carbodiimide (EDC) (Pierce Biotechnology, USA), in cell lysates diluted 1:10 in conjugation buffer (0.1M 2-[N-morpholino]ethane sulphonic acid, pH 5). […]
# AC133+ cells = assay: RT-PCR of CD38 and HOX genes in AC133+ cells
# Method: Total RNA was extracted from cultured human cells using the Rneasy mini kit (Quiagen) and following the manufacturer's instructions. 3 μg of RNA was used in subsequent reverse transcription reactions. The RNA was mixed with a poly T15 oligo to 5 microgrammes/ml and heated to 75° C. for 5 minutes. After cooling on ice, the following additional reagents were added; dNTPs to 0.4 mM, RNase OUT (Promega) to 1.6 U/μl, Moloney Murine Leukemia Virus Reverse Transcriptase (M-MLRvT) RnaseH— point mutant (Promega) to 8 U/μl and the appropriate buffer (supplied by the manufacturer) to x1 concentration. The mixture was incubated for one hour at 37° C., heated to 70° C. for two minutes and cooled on ice.
# PCR reactions were all performed in a total volume of 40 μl. For each we used 1 μl of the M-MLRvT reaction (as described above), 0.2 nmols of each primer and 20 microliters of Redimix pre-mixed PCR components (Sigma). All reactions were cycled at 94° C. for 30 seconds, 55° C. for 30 seconds and 72° C. for 60 seconds. 30 cycles were used for all primer sets except those for beta-actin, for which 23 cycles were used.
# [1] = test system: PBX1, 2 and 3 association with HOX proteins; assay: Cross-linking and Western blot of PBX proteins in KG1a cells (Example 2); conditions: 24 hours, 1 μM peptide, EDC cross-linking
# Method: HXP and control peptides were as described in Example 1. KG1a cells were grown as described in Example 1. KG1a cells were cultured for 24 hours without treatment, or in the presence of 1 μM HXP peptide or control peptide. The cells were harvested and lysed. One aliquot of the cells was subject to cross-linking. Frozen cells were lysed using standard techniques and […] of lysate was incubated for 30 minutes at room temperature in 4 mM 1-ethyl-3-[3-(dimethyl-amino)propyl]carbodimide (EDC), 4 mM sulpho-NHS, 20 mM HEPES (pH 7.5), 5 mM MgCl2, and 0.03% (w/v) […] to cross-link non-covalently associated proteins. The reaction was stopped by the addition of ammonium acetate to a final concentration of 50 mM. The other aliquot was frozen without cross-linking.
# Proteins were extracted from the cells of both aliquots by standard techniques and separated by gel electrophoresis. The gels were probed by Western blot with an antibody raised against PBX1, 2 and 3 (sc-888, Santa Cruz Inc. USA) or an anti-beta actin antibody (sc-1615, Santa Cruz Inc. USA).
# [2] = test system: leukaemic cell lines KG1a, KG1, HL60 and U937; assay: Leukaemic cell lines culture, trypan blue cell count (Example 1); conditions: 20 μg/ml
# Method: KG1a, KG1, HL60 and U937 cell lines were obtained from the ATCC (catalogue Nos. CCL-246.1, CCL-246, CCL-240 and CRL-1593.2, respectively.
# Cell lines were seeded at 1-5×10^5 cells/ml in liquid culture system made of RPMI-1640 medium (Life Technologies, UK) supplemented with Foetal Calf Serum (10% Sigma Aldrich) and gentamycin (50 μg/ml, Life Technologies) and at least in duplicate. When required the HXP peptide was added to the medium (20 μg/ml). Cell lines were cultured for up to 7 days at 37° C., 5% CO2 in humidified atmosphere. Cultured cells were then counted at various time points using trypan blue exclusion method described above.
# [3] = test system: KG1a, HL60 and U937 leukaemic cell lines; assay: Growth of leukaemic cell lines over 48 hours (Example 3); conditions: 20 μg/ml
# Method: KG1a, HL60 and U937 cell lines were seeded as described in Example 1.
# All cell lines were grown with HXP peptide (20 μg/ml) or CXP (20 μg/ml). Cell lines were cultured for various time points at 37° C., 5% CO2 in humidified atmosphere and enumerated at various time points.
substance,measurement,setting,value
WYPWMKKHHRQIKIWFQNRRMKWKK [HXP peptide],proportion of cells in phase G0-G1 upon withdrawing HXP peptide,CD133+ cells; compared to the HXP peptide-treated group,lower proportion of cells remained in phase G0-G1
same,more cells in phase G0-G1 of the cell cycle than the control group,"CD133+ cells; day 18 of culture, vs CXP4 treated cells, p<0.05",9.9%
same,binding of PBX to other proteins / formation of PBX/HOX dimers,PBX/HOX dimers,prevented binding of PBX to other proteins; also recorded: distrupted the formation of PBX/HOX dimers
same,CD38 gene expression,AC133+ cells,up-regulation
same,"HOX B4, B8 and A9 gene expression",AC133+ cells; from as early as day 3,down-regulated
same,association of PBX proteins with other proteins (HOX proteins),[1],none of the PBX isoforms from the HXP peptide treated cells were associated with other proteins
same,inhibition of leukaemic cell lines (cell growth),[2],inhibits
same,cell growth inhibition on leukaemic cell lines,[3],potent cell growth inhibition
same,time at which cell growth inhibition is apparent,[3],two

# Reference: patent publication US7728105B2, “Peptides impairing PBX dependent gene regulation” (St. George's Hospital Medical School, priority 2002, dated 2010)
